Reference: US20100048638A1, “HEPARAN SULFATE INHIBITORS” (ZACHARON PHARMACEUTICALS, INC., priority 2008, published 2010)

Experiments:
[1] = system: cultured primary human fibroblast from MPS patients; experiment: In vitro MPS model: accumulation of GAG fragments in fibroblasts; type: cell-based
From the text: Substrate reduction therapy (SRT) is validated for MPS. The non-specific inhibitor of sulfation, sodium chlorate is used herein for such validation. […] In certain instances, in vitro MPS models used herein are based on measuring the accumulation of GAG fragments in cultured primary human fibroblast from MPS patients. In some instances, the GAGs that accumulate in MPS patients are much smaller than normal tissue GAGs and they lack a core protein on their reducing termini. Based on these features the in vitro MPS model used in certain instances herein is based on a method of tagging reducing ends of the GAGs with a detectable label and analyzing (i.e., detecting and/or measuring) the detectable labels using a device suitable for detecting the label (e.g., an HPLC with a fluorimeter).

[2] = system: FGF2 binding to heparan sulfate in human cervical cancer cells (HeLa); experiment: FGF2 binding to heparan sulfate in HeLa cells, flow cytometry; type: cell-based; conditions: various concentrations
Protocol: (§1) FIG. 2 illustrates the impact of 4-(4-(3,4-dimethoxyphenyl)-6-phenylpyrimidin-2-yl)morpholine on the ability of FGF2 to bind to heparan sulfate in human cervical cancer cells (HeLa). FGF2 binding to heparan sulfate is measured by culturing HeLa cells in the presence of the heparan sulfate modulator. After 2 days of growth, the cells are released with 5 mM EDTA and probed with biotinylated FGF2 for 30 minutes on ice. After washing unbound FGF2, bound FGF2 is detected with streptavidin-Cy5-PE. After washing to remove unbound streptavidin-Cy5-PE, the bound probe is quantified using a flow cytometry. The heparan sulfate inhibitors are tested on at least three independent occasions, in duplicate over a dose range. Heparan sulfate specificity is determined by probing with lectins to other glycan classes (chondroitin sulfate, O-linked, N-linked, etc.). FIG. 3 illustrates the impact of 4-(4-(3,4-dimethoxyphenyl)-6-phenylpyrimidin-2-yl)morpholine on the sulfation of heparan sulfate found in human cervical cancer cells (HeLa). The sulfation of heparan sulfate is determined by culturing HeLa cells in the presence of the heparan sulfate modulator. Heparan sulfate is isolated from treated and untreated cells by lysing the cells in 0.1 N NaOH. After neutralization, the cell lysate is treated with pronase to degrade the core proteins. Subsequently, the heparan sulfate is purified on diethylaminoethyl (DEAE) resin, eluted with 1.0 M NaCl, desalted using gel filtration and dried. To characterize the composition of heparan sulfate produced in the presence of the heparan sulfate modulator, the isolate heparan sulfate is digested to disaccharides using a blend of heparin lyase I, II, and III (from flavobacterium heparinum). The disaccharides are quantified by HPLC using a propac PA1 column using known heparan sulfate disaccharides as standards. Specifically, FIG. 3A illustrates the impact of 4-(4-(3,4-dimethoxyphenyl)-6-phenylpyrimidin-2-yl)morpholine on the amount of specific disaccharide units; and FIG. 3B illustrates the impact of 4-(4-(3,4-dimethoxyphenyl)-6-phenylpyrimidin-2-yl)morpholine on the amount of specific glucosamine and uronic acid modifications.
as §1, with “FIG. 4” for “FIG. 2”, “of 7-((3-chlorophenyl)(pyridin-2-ylamino)methyl)-2-methylquinolin-8-ol” for “of 4-(4-(3,4-dimethoxyphenyl)-6-phenylpyrimidin-2-yl)morpholine”, “FIG. 5” for “FIG. 3”, “heparinum). […]” for “heparinum). The disaccharides are quantified by HPLC using a propac PA1 column using known heparan sulfate disaccharides as standards. Specifically, FIG. 3A illustrates the impact of 4-(4-(3,4-dimethoxyphenyl)-6-phenylpyrimidin-2-yl)morpholine on the amount of specific disaccharide units; and FIG. 3B illustrates the impact of 4-(4-(3,4-dimethoxyphenyl)-6-phenylpyrimidin-2-yl)morpholine on the amount of specific glucosamine and uronic acid modifications.”

SKOV3 cells = experiment: Human ovarian cancer model, SKOV3 subcutaneous tumors in female nude mice; type: in vivo; conditions: 1, 3 and 10 mg/kg/day, two IP injections daily
Protocol: Compound 9 was tested for anti-cancer activity in a Human ovarian cancer model. Briefly, 5 million SKOV3 cells were injected in 100 ul mixed with matrigel subcutaneously into female nude mice. The tumors were allowed to grow to 0.1 cm^3 then the mice were randomized into four groups (Vehicle, 1, 3, and 10 mg/kg/day). Each group received the indicated daily dose divided into two IP injections. Vehicle alone received the formulation only.

heparan sulfate = experiment: Heparan sulfate structure in liver and tumor after sacrifice, SKOV3 model; type: in vivo, mice
Protocol: (§2) After sacrifice, the liver and tumor were analyzed for changes in the structure of heparan sulfate.

[3] = system: 6-O sulfation of heparan sulfate; experiment: Change in the structure (sulfation) of heparan sulfate in cultured human cells; type: cell-based; conditions: FIG. 21A
Protocol: FIG. 2 illustrates the impact of 4-(4-(3,4-dimethoxyphenyl)-6-phenylpyrimidin-2-yl)morpholine on the ability of FGF2 to bind to heparan sulfate in human cervical cancer cells (HeLa). FGF2 binding to heparan sulfate is measured by culturing HeLa cells in the presence of the heparan sulfate modulator. After 2 days of growth, the cells are released with 5 mM EDTA and probed with biotinylated FGF2 for 30 minutes on ice. After washing unbound FGF2, bound FGF2 is detected with streptavidin-Cy5-PE. After washing to remove unbound streptavidin-Cy5-PE, the bound probe is quantified using a flow cytometry. The heparan sulfate inhibitors are tested on at least three independent occasions, in duplicate over a dose range. Heparan sulfate specificity is determined by probing with lectins to other glycan classes (chondroitin sulfate, O-linked, N-linked, etc.). FIG. 3 illustrates the impact of 4-(4-(3,4-dimethoxyphenyl)-6-phenylpyrimidin-2-yl)morpholine on the sulfation of heparan sulfate found in human cervical cancer cells (HeLa). The sulfation of heparan sulfate is determined by culturing HeLa cells in the presence of the heparan sulfate modulator. […] The disaccharides are quantified by HPLC using a propac PA1 column using known heparan sulfate disaccharides as standards. […]
as §2

[4] = system: synthesis of PAPs / heparan sulfate sulfation; conditions: cited from earlier work
[5] = in vitro model of MPS IIIA, human MPS IIIA fibroblasts

| Compound | inhibition of heparan sulfate biosynthesis ([1]; human MPS IIIA fibroblasts) | GAG accumulation [1, 5] | inhibition of FGF-2 binding to heparan sulfate [2] | further results |
| --- | --- | --- | --- | --- |
| COc1ccc(-c2cc(-c3ccccc3)nc(N3CCOCC3)n2)cc1OC [compound 1, 4-(4-(3,4-dimethoxyphenyl)-6-phenylpyrimidin-2-yl)morpholine] | inhibition of heparan sulfate biosynthesis | reduce GAG accumulation | inhibition of FGF-2 binding |  |
| Cc1ccc2ccc(C(Nc3ccccn3)c3cccc(Cl)c3)c(O)c2n1 (stereo not drawn) [compound 2, 7-((3-chlorophenyl)(pyridin-2-ylamino)methyl)-2-methylquinolin-8-ol] |  |  | inhibition of FGF-2 binding |  |
| Cc1ccc2ccc(C(Nc3ccccn3)c3ccccc3F)c(O)c2n1 (stereo not drawn) [compound 3, 7-((2-fluorophenyl)(pyridin-2-ylamino)methyl)-2-methylquinolin-8-ol] |  |  | inhibition of FGF-2 binding |  |
| CC(C)C(=O)NC(c1cccs1)c1cc([N+](=O)[O-])c2cccnc2c1O (stereo not drawn) [compound 5, 7-((thiophen-2-yl)(isobutoylamino)methyl)-5-nitroquinolin-8-ol] | inhibition of heparan sulfate biosynthesis | reduce GAG accumulation | inhibition of FGF-2 binding |  |
| CCc1cc(=O)oc2cc(Oc3ccc([N+](=O)[O-])cc3C(F)(F)F)ccc12 [compound 6, 4-ethyl-7-(4-nitro-2-(trifluoromethyl)phenoxy)-2H-chromen-2-one] |  |  | inhibition of FGF-2 binding |  |
| CC(C)(C)C1CCc2c(sc3nc(C(F)(F)F)[nH]c(=O)c23)C1 (stereo not drawn) [compound 7] | inhibition of heparan sulfate biosynthesis | reduce GAG accumulation | inhibition of FGF-2 binding |  |
| O=C(NC(=S)N(Cc1ccccc1)Cc1ccccc1)c1cccc(Cl)c1 [compound 8] | inhibition of heparan sulfate biosynthesis | reduce GAG accumulation | inhibition of FGF-2 binding |  |
| C[S+]([O-])c1ccc(-c2nc(-c3ccc(F)cc3)c(-c3ccncc3)[nH]2)cc1 (stereo not drawn) [compound 9] |  |  |  | tumor growth (SKOV3 cells): blocked tumor growth at all doses tested; heparan sulfate biosynthesis in liver (heparan sulfate; liver of treated animals, after sacrifice, 1, 3 and 10 mg/kg/day IP): altered in the liver of treated animals in a dose dependent manner; changes in the structure of heparan sulfate in tumor (heparan sulfate; small tumor remaining in treated animals, after sacrifice): No changes were detected; 6-O sulfation of heparan sulfate [3]: inhibits the 6-O sulfation of heparan sulfate |
| [Na+].[O-][Cl+2]([O-])[O-] [sodium chlorate, reference compound] |  | reduction of GAG accumulation |  | GAG accumulation ([1]; in vitro model of MPS I): reduction of GAG accumulation; GAG accumulation ([1]; in vitro model of MPS II): reduction of GAG accumulation; synthesis of PAPs (sulfate donor) ([4]; 30-60 mM): inhibits the synthesis of PAPs; sulfation of heparan sulfate produced by cells ([4]; cells grown in the presence of the substance): reduced sulfation |
